Several values for one entry are separate records, joined by “and”; a condition that tells them apart may be missing. Identical values can stand only once. Like-named read-outs stand apart in the source and are kept apart here.
Columns and labels:
[1] = system: CXCL10, IL17α, IL22, IL36γ, CCL20, SerpinB4 gene expression in Th17 stimulated human skin; experiment: Th17 stimulated human skin explants, RT-qPCR of biomarkers; type: cell-based; details: for inhibition at 10 µM: Homo sapiens, calculated to Th17 stimulated control, three skin donors
Text: Human skin biopsy tissue was stimulated to induce a Th17 immuno-phenotype using a method derived from Feghali-Bostwick et al. Induction of a Th17 phenotype in human skin—a mimic of dermal inflammatory diseases, Methods and Protocols, 2, 45 (2019). The pharmacodynamic assay described therein involves a similar paradigm to elicit a Th2 response and is used to evaluate the therapeutic potential of the active compounds (e.g., BETi1; and
Freshly excised healthy human skin tissue from abdominoplasties is defatted, cleaned and sectioned into 7 mm biopsies. The biopsies are placed in Transwell® inserts with the epidermis apical and exposed to air and the dermis submerged in media in the basal chamber. The biopsies are pre-treated overnight at 37° C., 5% CO2 with different compounds and controls added to the media in the basal chamber.
The next day, contents of the basal chamber is replaced with fresh media containing the test compound (listed below) and a stimulation cocktail for either Th2 inflammation (proprietary of service provider cocktail) or Th17 inflammation (mix of antibodies against CD3, CD28, IL-4, IFNγ and recombinant IL-1β, IL-6, IL-21, TGF-β). The biopsies are incubated at 37° C., 5% CO2 for a further 24 hrs.
A list of all the treatments is provided below: • 1. Untreated control (for both stimulations) • 2. Th2 stimulated control • 3. Th17 stimulated control • 4. Th2+BETia at 0.01, 0.04, 0.16, 0.63, 2.50, and 10 μM • 5. Th2+BETi1 at 0.01, 0.04, 0.16, 0.63, 2.50, and 10 μM • 6. Th2+Ruxolitinib at 0.01, 0.04, 0.16, 0.63, 2.50, and 10 μM • 7. Th2+betamethasone valerate 210 μM (equivalent to 0.01%) • 8. Th17+BETia at 10 μM • 9. Th17+BETi1 at 10 μM • 10. Th17+Ruxolitinib at 10 μM • 11. Th17+betamethasone valerate 210 μM (equivalent to 0.01%)
After harvesting, the biopsies are cut in half, and one half is homogenized and used for RNA extraction by standard methods and inflammatory pathways is assessed by RT-qPCR. The ability of BETi1 or BETia to inhibit the activity of up to six biomarkers per stimulation is reported as percent activity calculated to stimulated control and fold change in gene expression calculated to untreated control with respect to Th2 (IL4, IL13, IL31, CCL17, CCL26, CCL2) and Th17 (CXCL10, IL17α, IL22, IL36γ, CCL20, SerpinB4). Statistical analysis is performed on data sets from all 3 donors combined and compares the percent inhibition of each biomarker by each treatment calculated to its respective vehicle.
qPCR values were calculated using the relative quantification approach outlined by Livak, et al (2001) (Section 9, Reference 2). The Ct values (threshold cycle) defined as the fractional cycle number at which the amount of amplified target reaches a fixed threshold, were normalised to the Ct value of an internal biomarker or ‘housekeeping gene’ (GAPDH). The higher limit of detection was set at a Ct value of 40, and any target having not reached Ct by 40 cycles was set to this value. The delta Ct values (dt(Ct)) refers to the Ct of the gene of interest minus the Ct of the internal biomarker. The ddt(Ct) is the dt(Ct) value of the gene minus the average dt(Ct) value of the untreated samples. The ddt(Ct) is converted to power by the equation; =power(2,dt(Ct)). Fold change was calculated as ratio of the power of the gene of interest divided by the average power of the untreated samples. This normalizes the untreated samplers to a value of 1. For the comparison of multiple skin donors, the stimulated samples were normalized to 100% maximum activity (such to normalize variability between different skin donors). Percent activity was calculated as the percent increase or decrease in stimulation compared to the stimulated samples set at 100% maximum activity. Percent change was calculated as: Inhibition=(100−(avg % activity/stimulated)*100). Statistical analysis was performed using One-way ANOVA with Dunnett's Multiple Comparisons (non parametric). […]

E-cadherin = experiment: RHE vitiligo model: E-cadherin secretion by ELISA; type: cell-based, human; details: for E-Cad (% stimulated ctl) Mean / E-Cad (% stimulated ctl): TNF-α/IFN-γ stimulated RHE; for E-Cad (% stimulated ctl) Mean / E-Cad (% stimulated ctl) / Mean conc E-Cad / Conc E-Cad: 48 h; for E-Cad (% stimulated ctl) / Conc E-Cad: replicates N1-N3; for Mean conc E-Cad / Conc E-Cad: culture medium of RHE, TNF-α 12 ng/ml/IFN-γ 12 ng/ml; for E-Cadherin secretion: RHE stimulated with TNF-α/IFN-γ
Description: […] Three epidermis samples per condition are fixed in 4% formaldehyde solution and embedded in paraffin for further analysis (morphology analysis, melanin and melanocytes localisation/quantification). Three other epidermis samples per condition are put in a specific lysis buffer for total RNA extraction.
At the end of the treatments, culture media is collected (from 3 epidermis per condition), aliquoted and stored at −20° C. until use in ELISA assays. The quantity of MMP-9 secreted by the epidermis at the end of the treatments is analysed using the human MMP-9 Quantikine ELISA kit (Bio-Techne; DMP900). The secretion of E-cadherin in culture media is measured using to human E-cadherin Quantikine ELISA kit (Bio-Techne; DCADE0) dedicated for the measurement of natural human E-cadherin in culture supernates, serum, plasma, urine, and saliva.
The ELISAs are performed following the instructions of the supplier. The quantities of MMP-9 and E-cadherin are determined by comparisons with standard curves performed with recombinant human MMP-9 or E-cadherin provided in the kits.
Quantification of secretion of MMP-9 and E-cadherin by ELISA from collected culture medium was conducted in accordance with Method E. The results, shown in FIG. 5A and FIG. 5B are based on Tables 23 and 24 respectively and presented in percentage of release in comparison to the stimulated control. A statistical analysis (student t-test) was performed to compare the effects of the treatments with the formulations to the vehicle (with $: 0.05>p>0.01; $$: 0.01>p>0.001; and $$$: p<0.001). The same analysis was performed to compare the effects of the vehicle and of the unstimulated control to the stimulated control (with *: 0.05>p>0.01; **: 0.01>p>0.001; and ***: p<0.001). The analysis was performed from three replicates per condition (n=3). The mean of the three values and the standard deviation are presented on the histograms in FIG. 5A and FIG. 5B. As shown in Table 21 and FIG. 5A and consistent with the results of Part A, MMP-9 secretion was increased following the stimulation with the cytokines, which validates the assay.

Compound `Cn1cc(-c2cccc(O)c2Oc2ccccc2)c2cc[nH]c2c1=O` [BETi1] has an inhibition at 10 µM ([1]; read-out: % inhibition CXCL10) of 95%, an inhibition at 10 µM ([1]; read-out: % inhibition IL17α) of 99.5% and an inhibition at 10 µM ([1]; read-out: % inhibition IL36γ) of 95%. For the same compound, the “inhibition of IL-17, IL-36 and CXCL10 release relative to vehicle control” value ([1]; Th17-stimulated human skin tissue) was “greater than 95%”, the “E-Cad (% stimulated ctl) Mean” value (E-cadherin; BETi1 0.001%) was 138% and the “E-Cad (% stimulated ctl)” value (E-cadherin; BETi1 0.001%) was 129% (2×) and 156%. For the same compound, the “Mean conc E-Cad” value (E-cadherin; BETi1 0.001%) was 3.2 ng/mL, the “Conc E-Cad” value (E-cadherin; BETi1 0.001%) was 3.0 ng/ml (2×) and 3.6 ng/ml and the “E-Cad (% stimulated ctl) Mean” value (E-cadherin; BETi1 0.01%) was 118%. For the same compound, the “E-Cad (% stimulated ctl)” value (E-cadherin; BETi1 0.01%) was 117% and 109% and 128%, the “Mean conc E-Cad” value (E-cadherin; BETi1 0.01%) was 2.7 ng/mL and the “Conc E-Cad” value (E-cadherin; BETi1 0.01%) was 2.7 ng/mL and 2.5 ng/mL and 2.9 ng/mL. For the same compound, the “E-Cad (% stimulated ctl) Mean” value (E-cadherin; BETi1 0.1%) was 59%, the “E-Cad (% stimulated ctl)” value (E-cadherin; BETi1 0.1%) was 61% and 56% and 62% and the “Mean conc E-Cad” value (E-cadherin; BETi1 0.1%) was 1.4 ng/mL. For the same compound, the “Conc E-Cad” value (E-cadherin; BETi1 0.1%) was 1.4 ng/ml (2×) and 1.3 ng/ml, the “E-Cad (% stimulated ctl) Mean” value (E-cadherin; BETi1 1%) was 72% and the “E-Cad (% stimulated ctl)” value (E-cadherin; BETi1 1%) was 71% and 72% and 74%. The “Mean conc E-Cad” value (E-cadherin; BETi1 1%) was 1.7 ng/mL, the “Conc E-Cad” value (E-cadherin; BETi1 1%) was 1.6 ng/ml and 1.7 ng/ml (2×) and the E-Cadherin secretion (E-cadherin; listed as 1% BETi1) was “about 118%”. It also gave an E-Cadherin secretion (E-cadherin; listed as BETi1 0.1%) of 59%.

Reference: patent US20250339409A1, “USES OF PAN BET INHIBITORS” (VYNE THERAPEUTICS INC., priority 2021, published 2025)
